Laboratory results taken from US7875604B2, “Compounds that inhibit HIV particle formation” (University of Virginia Patent Foundation, priority 2004, dated 2011).
Where two headings read alike, the source gives them in different places.

Tests used:
[1] = system: HIV-1 NL4-3; test: Anti-HIV efficacy in fresh human PBMCs, reverse transcriptase readout, HIV-1 NL4-3; assay type: cell-based; conditions: for TI (TC50/IC50): HIV-1 NL4-3, PBMCs; for IC50: HIV-1 NL4-3, fresh human PBMCs, seven days, RT activity
Protocol: Compounds were evaluated for their ability to inhibit HIV replication in fresh human PBMCs. The assay was performed as follows.
Fresh human PBMCs, seronegative for HIV and HBV, were isolated from screened donors (Interstate Blood Bank, Inc. Memphis, Tenn.). Cells were pelleted/washed 2-3 times by low speed centrifugation and re-suspension in PBS to remove contaminating platelets. The Leukophoresed blood was then diluted 1:1 with Dulbecco's Phosphate Buffered Saline (DPBS) and layered over 14 mL of Lymphocyte Separation Medium (LSM; Cellgro® by Mediatech, Inc.; density 1.078+/−0.002 g/ml; Cat.#85-072-CL) in a 50 mL centrifuge tube and then centrifuged for 30 minutes at 600×g. Banded PBMCs were gently aspirated from the resulting interface and subsequently washed 2× with PBS by low speed centrifugation. After the final wash, cells were enumerated by trypan blue exclusion and re-suspended at 1×10^7 cells/mL in RPMI 1640 supplemented with 15% Fetal Bovine Serum (FBS), and 2 mM L-glutamine, 4 μg/mL Phytohemagglutinin (PHA-P, Sigma). The cells were allowed to incubate for 48-72 hours at 37° C. After incubation, PBMCs were centrifuged and resuspended in RPMI 1640 with 15% FBS, 2 mM L-glutamine, 100 U/mL penicillin, 100 μg/mL streptomycin, 10 μg/mL gentamycin, and 20 U/mL recombinant human IL-2 (R&D Systems, Inc). IL-2 is included in the culture medium to maintain the cell division initiated by the PHA mitogenic stimulation. PBMCs were maintained in this medium at a concentration of 1-2×10^6 cells/mL with biweekly medium changes until used in the assay protocol. Cells were kept in culture for a maximum of two weeks before being deemed too old for use in assays and discarded. Monocytes were depleted from the culture as the result of adherence to the tissue culture flask.
For the standard PBMC assay, PHA-P stimulated cells from at least two normal donors were pooled (mixed together), diluted in fresh medium to a final concentration of 1×10^6 cells/mL, and plated in the interior wells of a 96 well round bottom microplate at 50 μL/well (5×10^4 cells/well) in a standard format developed by the Infectious Disease Research department of Southern Research Institute. Pooling (mixing) of mononuclear cells from more than one donor is used to minimize the variability observed between individual donors, which results from quantitative and qualitative differences in HIV infection and overall response to the PHA and IL-2 of primary lymphocyte populations. Each plate contains virus/cell control wells (cells plus virus), experimental wells (drug plus cells plus virus) and compound control wells (drug plus media without cells, necessary for MTS monitoring of cytotoxicity). Since HIV-1 is not cytopathic to PBMCs, this allows the use of the same assay plate for both antiviral activity and cytotoxicity measurements. Test drug dilutions were prepared at a 2× concentration in microtiter tubes and 100 μL of each concentration was placed in appropriate wells using the standard format. 50 μL of a predetermined dilution of virus stock was placed in each test well (final MOI≅0.1). The PBMC cultures were maintained for seven days following infection at 37° C., 5% CO2. After this period, cell-free supernatant samples were collected for analysis of reverse transcriptase activity as a measure of virus release. Following removal of supernatant samples, compound cytotoxicity was measured by addition of MTS to the plates for determination of cell viability. Wells were also examined microscopically and any abnormalities were noted.
A microtiter plate-based reverse transcriptase (RT) reaction was utilized (Buckheit et al., AIDS Research and Human Retroviruses 7:295-302, 1991). Tritiated thymidine triphosphate (3H-TTP, 80 Ci/mmol, NEN) was received in 1:1 dH2O:Ethanol at 1 mCi/mL. […]

[2] = target: T1, HIV-1 Rev (Human immunodeficiency virus type 1 group M subtype B, UniProt P04618); test: cell-based; conditions: for TI (TC50/IC50): Rev assay
T1 construct: expressed in transfected cells
Protocol: The eight compounds listed in Table 1 were also tested in an assay that measured HIV-1 Rev function. […] The reporter used for these assays is the Renilla Luciferase protein, which is an enzyme that produces detectable light when mixed with certain chemicals. For this assay, a cell line has been developed in which the production of the reporter by the cells requires the function of HIV-1 Rev. Therefore, if a drug candidate inhibits the function of Rev, it decreases the amount of the reporter produced by the cells. By using Renilla Luciferase as the reporter, the inhibition of Rev is easily detected as a decrease in the amount of light produced by the cells when mixed with the appropriate chemicals.
(§1) Compounds were tested in the Rev assay using the maximum high-test concentration possible based on the supplied stocks as shown in Table 3. Compounds were prepared at a 2× high-test concentration by combining drug stock with tissue culture media at a ratio of 5 μL of drug to 995 μL of media. This 2× high-test sample was subsequently serially diluted in tissue culture media using 1/2 log dilutions. This series of 2× concentrated drug was subsequently diluted 1:1 by combining with an equal volume of cells in media in the 96-well plates used for the assay.

[3] = HIV-1 Rev assay toxicity/non-specificity readout (Firefly Luciferase); assay type: cell-based; conditions: human
Protocol: The eight compounds listed in Table 1 were also tested in an assay that measured HIV-1 Rev function. The HIV-1 Rev assay is based upon the use of a reporter for detecting whether drug candidates are capable of inhibiting the function of the viral Rev protein. The reporter used for these assays is the Renilla Luciferase protein, which is an enzyme that produces detectable light when mixed with certain chemicals. For this assay, a cell line has been developed in which the production of the reporter by the cells requires the function of HIV-1 Rev. Therefore, if a drug candidate inhibits the function of Rev, it decreases the amount of the reporter produced by the cells. By using Renilla Luciferase as the reporter, the inhibition of Rev is easily detected as a decrease in the amount of light produced by the cells when mixed with the appropriate chemicals. Furthermore, the cell line for this assay has been engineered to use a second similar reporter (Firefly Luciferase) that detects whether drug candidates are toxic.
as §1, with “assay. Representative data for two of the compounds is also depicted in FIG. 5.” for “assay.”
Leptomycin B is a control compound known to inhibit Rev function.

[4] = 50% inhibition of Renilla Luciferase, 24 hours, HeLa reporter line, read-out: IC50
[5] = Human immunodeficiency virus 1, NL43, PBMC, 168 h

T1 sequence (P04618 whole entry, looked up): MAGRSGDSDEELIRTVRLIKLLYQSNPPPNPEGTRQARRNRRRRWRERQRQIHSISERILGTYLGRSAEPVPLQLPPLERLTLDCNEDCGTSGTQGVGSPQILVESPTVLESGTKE

2-chloro-N-(4-methylphenyl)-4-(trifluoromethyl)-1,3-thazole-5-carboxamide [Compound 91161]
TI (TC50/IC50) [1]: 5.92 | IC50 [1]: 2.28 µM | IC50 [2, 4]: 9.73 µM | TI (TC50/IC50) [2]: >4.06

CCc1c(C(=O)Nc2ccccc2)c(C)nc2sc(C(N)=O)c(N)c12 [Compound 75168, 3-amino-4-ethyl-6-methyl-N˜5˜-phenylthieno[2,3-b]pyridine-2,5-dicarboxamide]
TI (TC50/IC50) [1]: >1.59 | IC50 [1, 5]: 16.9 µM | CC50 at 24 hours [3]: 7.91 µM | IC50 [2, 4]: 2.42 µM | TI (TC50/IC50) [2]: 3.27

COc1ccc2cc3c(N)n[nH]c3nc2c1 [Compound 89246, 7-methoxy-1H-pyrazolo[3,4-b]quinolin-3-ylamine]
TI (TC50/IC50) [1]: 14.90 | IC50 [1, 5]: 1.47 µM | CC50 at 24 hours [3]: 8.41 µM | IC50 [2, 4]: 0.48 µM | TI (TC50/IC50) [2]: 17.52

CCc1c(C)nc2sc(C(N)=O)c(N)c2c1C [Compound 103833, 3-amino-5-ethyl-4,6-dimethylthieno[2,3-b]pyridine-2-carboxamide]
TI (TC50/IC50) [1]: >16.94 | IC50 [1, 5]: 2.22 µM | CC50 at 24 hours [3]: > 37.6 µM | IC50 [2]: 1.07 µM

COc1ccc2nc(C(F)(F)F)c(C#N)c(N)c2c1 [Compound 104366, 4-amino-6-methoxy-2-(trifluoromethyl)-3-quinolinecarbonitrile]
TI (TC50/IC50) [1]: 23.91 | IC50 [1, 5]: 0.92 µM | CC50 at 24 hours ([3]; 50% inhibition of Firefly Luciferase (toxicity/non-specificity), 24 hours, read-out: TC50): 17.2 µM | IC50 [2, 4]: 2.24 µM | TI (TC50/IC50) [2]: 7.68

CS(=O)(=O)c1ncc(-c2ccc(Br)cc2)cn1 [Compound 107129, -(4-bromophenyl)-2-(methylsulfonyl)pyrimidine]
TI (TC50/IC50) [1]: 1.95 | IC50 [1, 5]: 2.12 µM | CC50 at 24 hours [3]: 30.9 µM | IC50 [2, 4]: 7.48 µM | TI (TC50/IC50) [2]: 4.13

COc1cccc(NC(=O)c2cc(Cl)nnc2Cl)c1 [Compound 107740, 3,6-dichloro-N-(3-methoxyphenyl)-4-pyridazinecarboxamide]
TI (TC50/IC50) [1]: 8.94 | IC50 [1, 5]: 1.61 µM | CC50 at 24 hours [3]: 18.5 µM | IC50 [2, 4]: 8 µM | TI (TC50/IC50) [2]: 2.31

Fc1ccc(Nc2ncnc3ccccc23)cc1Cl [Compound 109020, N-(3-chloro-4-fluorophenyl)-N-(4-quinazolinyl)amine]
TI (TC50/IC50) [1]: >1.55 | IC50 [1, 5]: 26.4 µM | CC50 at 24 hours [3]: > 40.8 µM | IC50 [2]: 8.98 µM | TI (TC50/IC50) [2]: >4.54
